Experimental data from patent US4342772A, “β-Lactam compounds, antibacterial compositions thereof and method of use” (priority 1979, dated 1982).
Where “and” joins values, the source holds several entries; their conditions need not be identical. Equal values may be shown once. Where a name gives a salt, the structure may show the parent alone. Read-outs that look alike come from different tables or passages of the source.

Columns and labels:
[1] = Urinary excretion in 0 to 6 hours of penicillanic acid 1,1-dioxide in fasting volunteers following oral administration (Table II); conditions: oral 73 mg potassium penicillanate 1,1-dioxide, aqueous solution, individual subjects in order GK, MK, FJ, MM, LA, 360 min
β-lactamases = conditions: cited from earlier work
[2] = test system: β-lactamase producing bacteria; conditions: cited from earlier work
[3] = test system: gram-positive and gram-negative organisms; conditions: cited from earlier work
[4] = cited from earlier work
[5] = Absorption from the gastro-intestinal tract and in vivo hydrolysis; set-up: species or system animals and human volunteers; conditions: oral, in words
[6] = human, in vivo, po
Experimental: Serum concentrations and urinary excretion of ampicillin in fasting
following oral administration of
A. 125 mg of pivampicillin free base in tablets.
B. 170 mg of VD-1827^x hydrochloride (corresponding to 125 mg of
free base) in aqueous solution.
Serum concentrations (μg/ml) (% of dose)

[7] = Stability of crystalline form; format: physicochemical; conditions: crystalline free base; in words
[8] = in words, medium not stated; cited from earlier work

Row | Compound | Inhibition of a wide range of β-lactamases (β-lactamases) | Synergy against β-lactamase producing bacteria [2] | Antibacterial activity against most gram-positive and gram-negative organisms [3] | further results
1 | CC1(C)[C@H](C(=O)[O-])N2C(=O)C[C@H]2S1(=O)=O.[K+] [potassium penicillanate 1,1-dioxide] |  |  |  | Urinary excretion of penicillanic acid 1,1-dioxide [1]: 2.5 % of dose and 4.0 % of dose and 9.5 % of dose and 5.5 % of dose and 4.5 % of dose
2 | CC1(C)[C@H](C(=O)O)N2C(=O)[C@@H](NC(=O)c3nc4ccccc4nc3C(=O)O)[C@H]2S1(=O)=O [quinacillin sulphone] | powerful inhibitors | act synergistically | only weak antibacterial activity | 
3 | CC1(C)S[C@@H]2C(NC(=O)[C@H](N)c3ccccc3)C(=O)N2[C@H]1C(=O)O (stereo partly drawn) [ampicillin, 6-(D-α-amino-α-phenylacetamido)penicillanic acid] |  |  |  | Absorption from the gastro-intestinal tract (general statement) ([4]; oral, in words, no data shown): incompletely absorbed
4 | CC1(C)[C@H](C(=O)O)N2C(=O)[C@H](Cl)[C@H]2S1(=O)=O [6α-chloropenicillanic acid 1,1-dioxide] | powerful inhibitors | act synergistically | only weak antibacterial activity | 
5 | CC1(C)S[C@@H]2[C@H](NC(=O)[C@H](N)c3ccccc3)C(=O)N2[C@H]1C(=O)OCOC(=O)[C@@H]1N2C(=O)C[C@H]2S(=O)(=O)C1(C)C [VD-1827 hydrochloride, 1,1-Dioxopenicillanoyloxymethyl 6-(D-α-amino-α-phenylacetamido)penicillanate hydrochloride] |  |  |  | Absorption from the gastro-intestinal tract ([5]; HCl, hydrochloride): efficient oral absorption; Urinary recovery of ampicillin compared with pivampicillin [6]: comparable to that following administration of pivampicillin
6 | COc1cccc(OC)c1C(=O)N[C@@H]1C(=O)N2[C@@H](C(=O)O)C(C)(C)S(=O)(=O)[C@H]12 [methicillin sulphone, 1,1-dioxo-6β-(2,6-dimethoxybenzamido)penicillanic acid] | powerful inhibitors | act synergistically | only weak antibacterial activity | 
7 | CC1(C)[C@H](C(=O)O)N2C(=O)C[C@H]2S1(=O)=O [penicillanic acid 1,1-dioxide] | powerful inhibitors | act synergistically | only weak antibacterial activity | Absorption from the gastro-intestinal tract [5]: absorbed poorly or irregularly
8 | CC(C)(C)C(=O)OCOC(=O)[C@@H]1N2C(=O)[C@@H](NC(=O)[C@H](N)c3ccccc3)[C@H]2SC1(C)C [pivampicillin] |  |  |  | Absorption from the gastro-intestinal tract (general statement) ([4]; oral, in words, no data shown): absorbed very rapidly
9 | CC1(C)S[C@@H]2[C@H](NC(=O)[C@H](N)c3ccccc3)C(=O)N2[C@H]1C(=O)OCOC(=O)[C@@H]1N2C(=O)C[C@H]2S(=O)(=O)C1(C)C [VD-1827, free base, 1,1-Dioxopenicillanoyloxymethyl 6-(D-α-amino-α-phenylacetamido)penicillanate] |  |  |  | Absorption from the gastro-intestinal tract ([5]; listed as free base VD 1827): readily absorbable; Stability [7]: stable
10 | CC(C)(C)C(=O)OCOC(=O)[C@@H]1N2C(=O)C[C@H]2S(=O)(=O)C1(C)C [pivaloyloxymethyl ester of the β-lactamase inhibitor penicillanic acid 1,1-dioxide] |  |  |  | Absorption from the gastro-intestinal tract (general statement) ([4]; oral, in words, no data shown): absorbed much more slowly; Solubility (general statement) [8]: sparingly soluble
11 | CC1(C)S[C@@H]2[C@H](NC(=O)C(C(=O)O)c3ccccc3)C(=O)N2[C@H]1C(=O)O (some centres unmarked) [carbenicillin] |  |  |  | Absorption from the gastro-intestinal tract (general statement) ([4]; in vivo, po): incompletely absorbed
